Patent US20220002373A1, “SINGLE-CHAIN INSULIN ANALOGUES WITH POLY-ALANINE C-DOMAIN SUB-SEGMENTS” (CASE WESTERN RESERVE UNIVERSITY, priority 2018, published 2022)

Tested on: Sprague-Dawley rats made diabetic with streptozotocin
Test: Pharmacodynamics after subcutaneous injection in a rat model of diabetes mellitus (blood-glucose concentration over time)
Type: in vivo
Settings: dose equivalent in nanomoles to 15 μg insulin lispro per 300-gram rat, relative to insulin lispro, FIG. 6
Method: The dose was 15 μg of insulin lispro per 300-gram rat; doses of the SCIs were equivalent in units of nanomoles per 300-gram rat (i.e., micrograms corrected for respective molecular masses).

## SCI-4: 57-residue single-chain insulin analogue, C domain EAAAAA, substitutions His^A8, Glu^A14, Asp^B28, Pro^B29; expressed in Pichia pastoris (FVNQHLCGSHLVEALYLVCGERGFFYTDPTEAAAAAGIVEQCCHSICSLEQLENYCN)
  integrated potency (area over the curve): essentially identical to that of insulin lispro
  offset of action / duration of action (tail of insulin action): essentially identical to that of insulin lispro
  onset of action: essentially identical to that of insulin lispro
